Patent publication US9890185B2, “Urea derivatives useful as kinase inhibitors” (Respivert Limited, priority 2013, dated 2018)
≈ marks a conversion by molar mass, not a printed value. Like-named read-outs stand apart in the source and are kept apart here.

Key:
[1] = target: Syk (Homo sapiens (Human), UniProt P43405); test: KINOMEscan enzyme binding assay (Syk); conditions: KINOMEscan technology; read-out: Dissociation Constant, Syk
Method: (§1) Kinase enzyme binding activities of compounds disclosed herein may be determined using a proprietary assay which measures active site-directed competition binding to an immobilized ligand (Fabian, M. A. et al., Nature Biotechnol., 2005, 23:329-336). These assays may be conducted by DiscoverX (formerly Ambit; San Diego, Calif.). The percentage inhibition produced by incubation with a test compound may be calculated relative to the non-inhibited control.

[2] = target: p38 MAPK β (Homo sapiens (Human), UniProt Q15759); test: KINOMEscan enzyme binding assay (p38 MAPKβ); conditions: KINOMEscan technology; read-out: Dissociation Constant, p38 MAPK β
Method: as §1

[3] = test system: endotoxin (LPS)-induced uveitis; test: Endotoxin-induced uveitis in rats (in vivo assay vi); design: species or system Lewis rats; conditions: for IL-1β Anterior tissue / IL-1β Posterior tissue: LPS-stimulated rats, topical to eye; for Cell counts: eyes of LPS-stimulated rats, topical
Method: Male, Lewis rats (6-8 weeks old, Charles River UK Limited) are housed in cages of 3 at 19-21° C. with a 12 h light/dark cycle (07:00/19:00) and fed a standard diet of rodent chow and water ad libitum. […] Untreated rats are injected with PBS. […] Before administration, the solution or suspension to be administered is agitated for 5 minutes to ensure a uniform suspension. 6 hours after LPS dosing, animals are euthanized by overdose with pentobarbitone (i.v.). Following euthanasia, the right eye of each animal is enucleated and dissected into front (anterior) and back (posterior) sections around the lens. Each section is weighed and homogenised in 500 μL of sterile phosphate buffered saline followed by 20 minutes centrifugation at 12000 rpm at 4° C. The resulting supernatant is divided into 3 aliquots and stored at −80° C. until subsequent cytokine analysis by R&D DuoSet ELISA.

[4] = Solubility in fasted-state simulated colonic fluid (FaSSCoF); assay type: physicochemical; conditions: thermodynamic from solid, pH 6.5, 25° C.; for solubility thermodynamic at 24 h: 25 °C, pH 6.5, fassgf or other biorelevant; for solubility at 24 h: fassgf or other biorelevant, read-out: Solubility in the FaSSCoF medium
Method: The solubilities of compounds of the invention in FaSSCoF at pH 6.5 are determined using a modification of a previously-reported procedure (Vertzoni, M., et al. Pharm. Res. 2010, 27, 2187-2196). In place of the bile salt extract employed in the original procedure (which extract is no longer available), the modified procedure uses a mixture of sodium taurochlorate (0.15 g), glycocholic acid (0.15 g), ursodeoxycholic acid (0.05 g), cholic acid (0.05 g), and glycodeoxycholic acid (0.05 g). These five bile acids are ground together with a mortar and pestle to produce a fine white powder that is incorporated into the FaSSCoF, as outlined below.
Tris(hydroxymethyl)aminomethane (Tris; 0.275 g) and maleic acid (0.44 g) are dissolved in water (35 mL) to give a solution whose pH is adjusted to 6.5 by treatment with 0.5M NaOH (ca. 12 mL). The solution is then made up to 50 mL with water. A portion of this Tris/maleate buffer solution (ca. 25 mL) is added to a 0.5 L round-bottomed flask, before being treated with 0.00565 g of the bile acid mixture described above. Solutions of phosphatidylcholine (0.0111 g) in DCM (0.15 mL) and palmitic acid (0.0013 g) in DCM (0.15 mL) are added, then the organic solvent is evaporated off under reduced pressure at 40° C. until a clear solution, with no perceptible DCM odour, is achieved. The volume of the evaporated solution is adjusted to 50 mL by addition of the remainder of Tris/maleate buffer, then BSA (0.115 g) is added, before being dissolved by gentle agitation.
Test compounds are suspended in the pH 6.5 FaSSCoF medium to give a maximum final concentration of ca. 6 mg/mL. The suspensions are equilibrated at 25° C. for 24 h, before being filtered through a glass fibre C filter. The filtrates are then diluted as appropriate for injection and quantification by HPLC with reference to a standard. Different volumes of the standard, diluted and undiluted sample solutions are injected and the solubilities are calculated using the peak areas determined by integration of the peak found at the same retention time as the principal peak in the standard injection.

[5] = Run 1, read-out: pH 6.5 FaSSCoF Solubility Run 1
[6] = Run 2, read-out: pH 6.5 FaSSCoF Solubility Run 2

p38 MAPK β, sequence (Q15759 whole entry): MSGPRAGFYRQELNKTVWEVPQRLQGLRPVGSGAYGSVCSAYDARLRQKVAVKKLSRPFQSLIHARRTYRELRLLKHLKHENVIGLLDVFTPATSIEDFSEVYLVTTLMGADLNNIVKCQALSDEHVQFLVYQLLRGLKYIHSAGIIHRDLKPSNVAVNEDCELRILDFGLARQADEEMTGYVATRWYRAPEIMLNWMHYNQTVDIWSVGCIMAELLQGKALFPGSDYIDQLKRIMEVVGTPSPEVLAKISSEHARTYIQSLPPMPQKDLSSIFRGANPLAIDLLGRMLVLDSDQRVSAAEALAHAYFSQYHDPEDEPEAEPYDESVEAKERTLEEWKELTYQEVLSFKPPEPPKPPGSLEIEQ

Row | Kd [1] | Kd [2] | solubility thermodynamic at 24 h [4, 5] | solubility thermodynamic at 24 h [4, 6] | solubility at 24 h [4] | Structure (SMILES) | other results
1 | 29 nM | 340 nM | – | – | – | COCCOCCOCCOc1cc(Nc2cc(Oc3ccc(NC(=O)Nc4cc(C(C)(C)C)cc(S(C)(=O)=O)c4OC)c4ccccc34)ccn2)cc(OC)c1 [Example 9, 1-(5-(tert-Butyl)-2-methoxy-3-(methylsulfonyl)phenyl)-3-(4-((2-((3-methoxy-5-(2-(2-(2-methoxyethoxy)ethoxy)ethoxy)phenyl)amino)pyridin-4-yl)oxy)naphthalen-1-yl)urea] | –
2 | 5.1 nM | – | – | – | – | COc1cc(Nc2cc(Oc3ccc(NC(=O)Nc4cc(C(C)(C)C)cc(P(C)(C)=O)c4OC)c4ccccc34)ccn2)cc(C(N)=O)c1 [Example 37, 3-((4-((4-(3-(5-(tert-butyl)-3-(dimethylphosphoryl)-2-methoxyphenyl)ureido)-naphthalen-1-yl)oxy)pyridin-2-yl)amino)-5-methoxybenzamide] | IL-1β Anterior tissue ([3]; 0.1 mg/mL): 480.1 ± 113.7 pg/mL; IL-1β Posterior tissue ([3]; 0.1 mg/mL): 319.6 ± 64.8 pg/mL; IL-1β Anterior tissue ([3]; 1 mg/mL): 330.4 ± 94.2 pg/mL; IL-1β Posterior tissue ([3]; 1 mg/mL): 285.8 ± 96.4 pg/mL; Cell counts ([3]; 0.1 mg/mL): 39.1 ± 7.1; Cell counts ([3]; 1 mg/mL): 32.6 ± 9.5; Cytokine levels in anterior and posterior segments of the eyes ([3]; rats treated with intravitreal endotoxin LPS): significantly reduced
3 | – | – | 12.3 µg/mL (≈ 14.2 µM) | 13 µg/mL (≈ 15 µM) | > 10 µg/mL | COCCOCCOCCNC(=O)c1cc(Nc2cc(Oc3ccc(NC(=O)Nc4cc(C(C)(C)C)cc(CNC(=O)CN(C)C)c4OC)c4ccccc34)ccn2)cc(OC)c1 [Example 77, 3-((4-((4-(3-(5-(tert-Butyl)-3-((2-(dimethylamino)acetamido)methyl)-2-methoxyphenyl)ureido)naphthalen-1-yl)oxy)pyridin-2-yl)amino)-5-methoxy-N-(2-(2-(2-methoxyethoxy)ethoxy)ethyl)benzamide] | –

The remaining lines, values behind:

Row | Structure (SMILES) | Kd [1] | Kd [2] | solubility thermodynamic at 24 h [4, 5] | solubility thermodynamic at 24 h [4, 6] | solubility at 24 h [4] | other results
4 | COc1c(NC(=O)Nc2ccc(Oc3ccnc(Nc4ccccc4)c3)c3ccccc23)cc(C(C)(C)C)cc1[S+](C)[O-] (racemic) [Example 12, 1-(5-(tert-Butyl)-2-methoxy-3-(methylsulfinyl)phenyl)-3-(4-((2-(phenylamino)pyridin-4-yl)oxy)naphthalen-1-yl)urea] | 18 nM | 57 nM | – | – | – | –
5 | COc1cc(Nc2cc(Oc3ccc(NC(=O)Nc4cc(C(C)(C)C)cc([S+](C)[O-])c4OC)c4ccccc34)ccn2)ccc1C(=O)NCCN1CCOCC1 (stereo not drawn) [Example 72, 4-((4-((4-(3-(5-(tert-Butyl)-2-methoxy-3-(methylsulfinyl)phenyl)ureido)naphthalen-1-yl)oxy)pyridin-2-yl)amino)-2-methoxy-N-(2-morpholinoethyl)benzamide] | – | – | 10.7 µg/mL (≈ 13.7 µM) | 11.2 µg/mL (≈ 14.3 µM) | > 10 µg/mL | –
6 | COc1cc(Nc2cc(Oc3ccc(NC(=O)Nc4cc(C(C)(C)C)cc(CC(N)=O)c4OC)c4ccccc34)ccn2)ccc1C(=O)NCC(CO)(CO)CO [Example 73, 4-((4-((4-(3-(3-(2-Amino-2-oxoethyl)-5-(tert-butyl)-2-methoxyphenyl)ureido)naphthalen-1-yl)oxy)pyridin-2-yl)amino)-N-(3-hydroxy-2,2-bis(hydroxymethyl)propyl)-2-methoxybenzamide] | – | – | 15.2 µg/mL (≈ 19.5 µM) | 16.6 µg/mL (≈ 21.3 µM) | > 10 µg/mL | –
